Where no end group is shown, it is not given here.
Columns and labels:
Assay in all cases: MATRIX screen against PDZ library (modified G assay)
Assay type in all cases: binding
Conditions in all cases: pre-incubation conditions
[1] = molecular target: T1, KIAA1284 (Homo sapiens, UniProt Q9ULD6)
T1 construct: made in house
Description: (§1) Matrix graphPeptides and proteins were tested in an array format constituting a near complete set (255) of all the different PDZ domains in the human genome. Each PDZ domain polypeptide was expressed as a recombinant GST-PDZ polypeptide in a commercial glutathione S-transferase tagged expression system. Specific binding of biotinylated-PL peptides to PDZ domain polypeptides was detected using streptavidin-HRP and TMB substrate. Similarly, specific binding of PL protein-MBP fusion proteins to PDZ domain polypeptides was visualized using biotinylated anti-MBP, streptavidin-HRP and TMB substrate. The relative strength of binding was analyzed and the strong and weak binders are shown for each PL. A PDZ protein that binds more strongly is preferable when used for capturing or identifying PL proteins.
(§2) Two different types of ELISA assays were used to test the HIV Peptides 1904 and 1905. The primary MATRIX screen against all PDZ proteins in the library was performed under pre-incubation conditions, which are a modification of the G assay. A pre-incubation assay incubates the peptide with the HRP-streptavidin before addition of the mixture to the PDZ-coated plate. The subsequent titrations of the peptide against the PDZs of interest were performed under normal ELISA G assay conditions. In normal conditions the peptide is incubated on the PDZ coated plate before the later addition of the HRP-streptavidin. The reagents and supplies for both assays are listed below, as well as the two different protocols.
(§3) The PRISM Matrix ELISA modified G Assay was also used for pre-incubation and for the MATRIX assay. The protocol was as follows.
(§4) 1. Coat plate with 100 μl of 5 μg/ml anti-GST, O/N @ 4° C.
(§5) 2. Dump contents out of plate and tap dry on paper towels
(§6) 3. Block with 200 μl Assay Buffer for 1 to 2 hrs at room temperature
(§7) 4. Prepare proteins in Assay Buffer
(§8) 5. Wash plate 3× with cold PBS*
(§9) 6. Add proteins at 50 μl per well, incubate 1 to 2 hrs at 4° C.
(§10) 7. Prepare peptides in Assay Buffer:
(§11) • Prepare peptides in half of volume need with double of desired concentration. • Dilute HRP (1:1000) in another half of volume (same volume with peptide) then mix with peptides. • Incubate the peptide-HRP mixtures for 20 minutes at RT 8. Wash plate 3× with cold PBS* 9. Add peptide-HRP mixtures at 50 μl per well (write time on plate) 10. Incubate at RT after last peptide has been added for exactly 30 minutes 11. Turn on plate reader and prepare files 12. Promptly wash plate 5× with room temperature PBS 13. Add 100 μl/well TMB substrate (write time on plate) 14. Incubate in dark at room temp for a maximum of 30 minutes 15. Stop reaction with 100 μl of 0.18M H2SO4, 30 min. after adding TMB 16. Take last reading at 450 nm soon after stopping reaction

[2] = molecular target: T2, SIP1 d1 (Homo sapiens, UniProt Q15599)
T2 construct: made in house
Description: as §1, §2, §3, §4, §5, §6, §7, §8, §9, §10, §11

[3] = molecular target: T3, EBP50 d1 (Homo sapiens, UniProt O14745)
T3 construct: made in house
Description: as §1, §2, §3, §4, §5, §6, §7, §8, §9, §10, §11

[4] = molecular target: T4, Shank 1 (Homo sapiens, UniProt Q9Y566)
T4 construct: made in house
Description: as §1, §2, §3, §4, §5, §6, §7, §8, §9, §10, §11

[5] = molecular target: T5, EBP50 (Homo sapiens, UniProt O14745)
T5 construct: made in house
Description: as §1, §2, §3, §4, §5, §6, §7, §8, §9, §10, §11

[6] = molecular target: T6, Tip (Homo sapiens, UniProt O14907)
T6 construct: made in house
Description: as §1, §2, §3, §4, §5, §6, §7, §8, §9, §10, §11

[7] = molecular target: T7, MAST2 (Homo sapiens, UniProt Q6P0Q8)
T7 construct: made in house
Description: as §1, §2, §3, §4, §5, §6, §7, §8, §9, §10, §11

[8] = molecular target: T8, Shank 3 (Homo sapiens, UniProt Q9BYB0)
T8 construct: made in house
Description: as §1, §2, §3, §4, §5, §6, §7, §8, §9, §10, §11

[9] = molecular target: T9, PICK1 F.L. (Homo sapiens, UniProt Q9NRD5)
T9 construct: PICK1 F.L; made in house
Description: as §1, §2, §3, §4, §5, §6, §7, §8, §9, §10, §11

[10] = molecular target: T10, NSP (Homo sapiens, UniProt Q92743)
T10 construct: made in house
Description: as §1, §2, §3, §4, §5, §6, §7, §8, §9, §10, §11

[11] = molecular target: T11, PAR3 d3 (Homo sapiens, UniProt Q8TEW0, R682S)
T11 construct: made in house
Description: as §1, §2, §3, §4, §5, §6, §7, §8, §9, §10, §11

[12] = molecular target: T12, SITAC-18 d2 (Homo sapiens, UniProt Q9H190)
T12 construct: made in house
Description: as §1, §2, §3, §4, §5, §6, §7, §8, §9, §10, §11

[13] = molecular target: T13, PAR6 beta (Homo sapiens, UniProt Q9BYG5)
T13 construct: made in house
Description: as §1, §2, §3, §4, §5, §6, §7, §8, §9, §10, §11

[14] = molecular target: T14, RhophilinLike (Homo sapiens, UniProt Q8TCX5)
T14 construct: made in house
Description: as §1, §2, §3, §4, §5, §6, §7, §8, §9, §10, §11

[15] = molecular target: T15, NOS1 (Homo sapiens, UniProt P29475)
T15 construct: made in house
Description: as §1, §2, §3, §4, §5, §6, §7, §8, §9, §10, §11

[16] = molecular target: T16, AIPC d1 (Homo sapiens, UniProt O15018)
T16 construct: made in house
Description: as §1, §2, §3, §4, §5, §6, §7, §8, §9, §10, §11

[17] = molecular target: T17, SITAC-18 d1 (Homo sapiens, UniProt Q9H190)
T17 construct: made in house
Description: as §1, §2, §3, §4, §5, §6, §7, §8, §9, §10, §11

[18] = molecular target: T18, KIAA0316 (Homo sapiens, UniProt Q14CM0, A161E)
T18 construct: made in house
Description: as §1, §2, §3, §4, §5, §6, §7, §8, §9, §10, §11

[19] = molecular target: T19, Magi1 d1 (Homo sapiens, UniProt Q96QZ7)
T19 construct: made in house
Description: as §1, §2, §3, §4, §5, §6, §7, §8, §9, §10, §11

[20] = molecular target: T20, MUPP1d3 (Homo sapiens, UniProt O75970)
T20 construct: made in house
Description: as §1, §2, §3, §4, §5, §6, §7, §8, §9, §10, §11

[21] = molecular target: T21, MINT1 d1, 2 (Homo sapiens, UniProt Q02410)
T21 construct: MINT1 d1, 2; made in house
Description: as §1, §2, §3, §4, §5, §6, §7, §8, §9, §10, §11

[22] = molecular target: T22, RIM2 (Homo sapiens, UniProt Q9UQ26)
T22 construct: made in house
Description: as §1, §2, §3, §4, §5, §6, §7, §8, §9, §10, §11

[23] = molecular target: T23, ZO-1 d4 (Homo sapiens, UniProt Q07157)
T23 construct: ZO-1 d4; made in house
Description: as §1, §2, §3, §4, §5, §6, §7, §8, §9, §10, §11

[24] = molecular target: T24, PAR3L d3 (Homo sapiens, UniProt Q8TEW8)
T24 construct: made in house
Description: as §1, §2, §3, §4, §5, §6, §7, §8, §9, §10, §11

[25] = molecular target: T25, MUPP1d11 (Homo sapiens, UniProt O75970)
T25 construct: made in house
Description: as §1, §2, §3, §4, §5, §6, §7, §8, §9, §10, §11

[26] = molecular target: T26, INADL d3 (Homo sapiens, UniProt Q8NI35)
T26 construct: made in house
Description: as §1, §2, §3, §4, §5, §6, §7, §8, §9, §10, §11

T1 sequence (Q9ULD6 159-271): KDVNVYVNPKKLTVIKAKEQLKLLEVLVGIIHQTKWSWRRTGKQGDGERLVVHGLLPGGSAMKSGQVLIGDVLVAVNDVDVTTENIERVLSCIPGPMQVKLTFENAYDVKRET
T10 sequence (Q92743 359-473): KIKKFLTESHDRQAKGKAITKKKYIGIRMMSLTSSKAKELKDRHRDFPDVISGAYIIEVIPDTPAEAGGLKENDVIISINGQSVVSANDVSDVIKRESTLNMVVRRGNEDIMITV
T2 sequence (Q15599 with tags, fused parts or gaps): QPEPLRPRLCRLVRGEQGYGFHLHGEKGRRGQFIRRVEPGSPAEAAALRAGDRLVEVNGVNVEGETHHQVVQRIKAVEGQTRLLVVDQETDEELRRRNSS
T11 sequence (Q8TEW0 with tags, fused parts or gaps R682S): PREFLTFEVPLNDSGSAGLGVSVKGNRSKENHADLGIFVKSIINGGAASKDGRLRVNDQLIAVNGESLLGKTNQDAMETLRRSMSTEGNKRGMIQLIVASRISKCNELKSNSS
T7 sequence (Q6P0Q8 with tags, fused parts or gaps): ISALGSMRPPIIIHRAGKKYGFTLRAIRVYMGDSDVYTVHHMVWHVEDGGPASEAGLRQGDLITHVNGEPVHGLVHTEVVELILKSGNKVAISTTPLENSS
T9 sequence (Q9NRD5 whole entry): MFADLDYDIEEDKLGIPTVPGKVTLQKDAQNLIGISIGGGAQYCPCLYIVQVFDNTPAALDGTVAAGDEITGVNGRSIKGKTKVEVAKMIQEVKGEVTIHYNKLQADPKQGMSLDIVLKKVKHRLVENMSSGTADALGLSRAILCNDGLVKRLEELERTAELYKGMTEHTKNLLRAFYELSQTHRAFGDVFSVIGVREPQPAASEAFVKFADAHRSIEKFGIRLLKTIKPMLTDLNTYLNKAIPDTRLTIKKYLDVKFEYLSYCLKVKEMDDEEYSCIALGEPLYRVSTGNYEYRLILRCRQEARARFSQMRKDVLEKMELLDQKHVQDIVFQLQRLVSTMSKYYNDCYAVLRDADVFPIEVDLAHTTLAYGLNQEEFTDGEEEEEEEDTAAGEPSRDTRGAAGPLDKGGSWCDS
T12 sequence (Q9H190 with tags, fused parts or gaps): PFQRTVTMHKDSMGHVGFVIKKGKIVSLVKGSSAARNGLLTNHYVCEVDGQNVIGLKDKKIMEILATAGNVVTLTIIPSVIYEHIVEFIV
T21 sequence (Q02410 651-828): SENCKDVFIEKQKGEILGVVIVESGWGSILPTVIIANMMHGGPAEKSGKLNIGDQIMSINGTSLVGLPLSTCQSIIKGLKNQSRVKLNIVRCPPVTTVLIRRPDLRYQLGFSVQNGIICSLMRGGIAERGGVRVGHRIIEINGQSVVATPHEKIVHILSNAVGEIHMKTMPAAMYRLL
T3 sequence (O14745 with tags, fused parts or gaps): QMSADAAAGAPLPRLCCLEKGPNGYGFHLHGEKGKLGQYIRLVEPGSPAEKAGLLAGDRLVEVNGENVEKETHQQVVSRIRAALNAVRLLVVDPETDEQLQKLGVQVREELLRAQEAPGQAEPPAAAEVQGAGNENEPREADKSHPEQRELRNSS
T20 sequence (O75970 with tags, fused parts or gaps): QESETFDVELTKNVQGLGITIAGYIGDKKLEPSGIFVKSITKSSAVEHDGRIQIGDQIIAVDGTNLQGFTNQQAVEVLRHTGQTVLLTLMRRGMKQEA
T24 sequence (Q8TEW8 with tags, fused parts or gaps): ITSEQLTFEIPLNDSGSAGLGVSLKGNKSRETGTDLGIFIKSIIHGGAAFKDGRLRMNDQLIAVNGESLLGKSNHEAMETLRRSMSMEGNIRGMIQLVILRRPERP
T6 sequence (O14907 15-112): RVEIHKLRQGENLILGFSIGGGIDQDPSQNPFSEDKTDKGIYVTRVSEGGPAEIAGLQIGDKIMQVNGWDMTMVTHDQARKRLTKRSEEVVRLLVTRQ
T16 sequence (O15018 with tags, fused parts or gaps): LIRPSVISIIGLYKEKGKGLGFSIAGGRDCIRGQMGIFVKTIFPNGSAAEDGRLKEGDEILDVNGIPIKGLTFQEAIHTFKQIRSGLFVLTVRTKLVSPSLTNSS
T19 sequence (Q96QZ7 with tags, fused parts or gaps): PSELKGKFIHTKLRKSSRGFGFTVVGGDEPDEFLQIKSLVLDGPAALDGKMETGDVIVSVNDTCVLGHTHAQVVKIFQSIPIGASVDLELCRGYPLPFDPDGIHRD
T23 sequence (Q07157 178-269 limits assumed): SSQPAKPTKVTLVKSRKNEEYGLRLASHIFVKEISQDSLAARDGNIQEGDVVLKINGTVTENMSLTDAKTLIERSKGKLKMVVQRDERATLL
T13 sequence (Q9BYG5 with tags, fused parts or gaps): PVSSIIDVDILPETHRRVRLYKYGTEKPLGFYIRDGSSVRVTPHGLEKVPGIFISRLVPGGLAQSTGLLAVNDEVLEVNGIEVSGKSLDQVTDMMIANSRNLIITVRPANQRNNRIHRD
T25 sequence (O75970 1716-1813): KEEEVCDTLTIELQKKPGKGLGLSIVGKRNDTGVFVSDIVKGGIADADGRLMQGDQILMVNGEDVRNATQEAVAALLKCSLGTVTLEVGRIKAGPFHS
T17 sequence (Q9H190 104-195): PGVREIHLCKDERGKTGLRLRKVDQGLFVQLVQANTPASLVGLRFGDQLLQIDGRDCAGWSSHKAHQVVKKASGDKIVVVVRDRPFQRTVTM
T18 sequence (Q14CM0 with tags, fused parts or gaps A161E): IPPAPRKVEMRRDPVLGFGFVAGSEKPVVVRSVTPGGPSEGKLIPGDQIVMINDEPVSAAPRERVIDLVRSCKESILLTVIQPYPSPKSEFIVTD
T4 sequence (Q9Y566 with tags, fused parts or gaps): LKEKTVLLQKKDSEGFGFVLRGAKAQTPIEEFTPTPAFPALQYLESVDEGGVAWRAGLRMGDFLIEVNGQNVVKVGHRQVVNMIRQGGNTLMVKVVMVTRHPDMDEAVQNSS
T8 sequence (Q9BYB0 638-747): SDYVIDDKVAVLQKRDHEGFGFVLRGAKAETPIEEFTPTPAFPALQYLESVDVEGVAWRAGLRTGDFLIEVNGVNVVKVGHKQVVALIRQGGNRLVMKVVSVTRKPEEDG
T22 sequence (Q9UQ26 632-757): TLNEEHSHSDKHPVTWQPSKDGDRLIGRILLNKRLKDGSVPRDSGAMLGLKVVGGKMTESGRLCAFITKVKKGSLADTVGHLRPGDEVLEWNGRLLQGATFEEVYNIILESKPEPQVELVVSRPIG
T26 sequence (Q8NI35 with tags, fused parts or gaps): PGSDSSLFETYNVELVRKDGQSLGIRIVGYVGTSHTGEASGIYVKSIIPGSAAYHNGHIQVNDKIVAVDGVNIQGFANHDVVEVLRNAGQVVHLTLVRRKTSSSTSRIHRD
T5 sequence (O14745 whole entry): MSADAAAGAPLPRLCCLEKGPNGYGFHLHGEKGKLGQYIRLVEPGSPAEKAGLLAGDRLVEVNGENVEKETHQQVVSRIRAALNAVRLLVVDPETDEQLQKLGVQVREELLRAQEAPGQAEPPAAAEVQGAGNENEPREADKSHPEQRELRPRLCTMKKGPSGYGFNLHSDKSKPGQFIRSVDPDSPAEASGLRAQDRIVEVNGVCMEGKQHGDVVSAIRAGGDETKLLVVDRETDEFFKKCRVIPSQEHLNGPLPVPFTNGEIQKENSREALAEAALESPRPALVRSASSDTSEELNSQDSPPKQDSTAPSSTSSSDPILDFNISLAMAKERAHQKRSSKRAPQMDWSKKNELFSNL
T14 sequence (Q8TCX5 with tags, fused parts or gaps): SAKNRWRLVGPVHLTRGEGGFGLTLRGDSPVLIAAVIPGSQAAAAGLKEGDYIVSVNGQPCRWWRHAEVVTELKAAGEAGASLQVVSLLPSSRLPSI
T15 sequence (P29475 11-100): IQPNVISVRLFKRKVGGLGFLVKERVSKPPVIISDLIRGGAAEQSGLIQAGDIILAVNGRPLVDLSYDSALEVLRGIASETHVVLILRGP

YGRKKRRQRRRRQGFERALL-OH [Peptide 1905]
Intensity of Hit, PDZ KIAA1284 [1]: STRONG
Intensity of Hit, PDZ SIP1 d1 [2]: STRONG
Intensity of Hit, PDZ EBP50 d1 [3]: STRONG
Intensity of Hit, PDZ Shank 1 [4]: STRONG
Intensity of Hit, PDZ EBP50 [5]: STRONG
Intensity of Hit, PDZ Tip [6]: STRONG
Intensity of Hit, PDZ MAST2 [7]: STRONG
Intensity of Hit, PDZ Shank 3 [8]: STRONG
Intensity of Hit, PDZ PICK1 F.L. [9]: STRONG
Intensity of Hit, PDZ NSP [10]: STRONG
Intensity of Hit, PDZ PAR3 d3 [11]: STRONG

YGRKKRRQRRRRQGLERILL-OH [Peptide 1904]
Intensity of Hit, PDZ KIAA1284 [1]: STRONG
Intensity of Hit, PDZ SIP1 d1 [2]: WEAK
Intensity of Hit, PDZ SITAC-18 d2 [12]: STRONG
Intensity of Hit, PDZ PAR6 beta [13]: STRONG
Intensity of Hit, PDZ RhophilinLike [14]: STRONG
Intensity of Hit, PDZ NOS1 [15]: STRONG
Intensity of Hit, PDZ AIPC d1 [16]: STRONG
Intensity of Hit, PDZ SITAC-18 d1 [17]: STRONG
Intensity of Hit, PDZ KIAA0316 [18]: STRONG
Intensity of Hit, PDZ Magi1 d1 [19]: STRONG
Intensity of Hit, PDZ MUPP1d3 [20]: WEAK
Intensity of Hit, PDZ MINT1 d1, 2 [21]: STRONG
Intensity of Hit, PDZ RIM2 [22]: STRONG
Intensity of Hit, PDZ MAST2 [7]: STRONG
Intensity of Hit, PDZ ZO-1 d4 [23]: STRONG
Intensity of Hit, PDZ PAR3L d3 [24]: STRONG
Intensity of Hit, PDZ MUPP1d11 [25]: STRONG
Intensity of Hit, PDZ NSP [10]: STRONG
Intensity of Hit, PDZ INADL d3 [26]: STRONG
Intensity of Hit, PDZ PAR3 d3 [11]: STRONG

— US20070014803A1, “METHODS AND COMPOSITIONS FOR DIAGNOSIS AND TREATMENT OF VIRAL AND BACTERIAL INFECTIONS” (Arbor Vita Corporation, priority 2005, published 2007)
